Test results from patent US12195427B2, “MASP-2 inhibitors and methods of use” (priority 2018, dated 2025).
Structures can show the parent of a compound that is named as a salt.

Biological target: MASP-2 CCP2-SP (Homo sapiens (Human), UniProt O00187)
Experiment: MASP-2 co-crystallization, X-ray crystallography and structure analysis (H-bonds, van der Waals contacts);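 for Ligand-pharmacophore element distance, pharmacophore element C2: distance from averaged pharmacophore element to bound ligand; missing value means element absent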;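 for Ligand-pharmacophore element distance, pharmacophore element C3: distance from averaged pharmacophore element to bound ligand; missing value means element absent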;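 for Ligand-pharmacophore element distance, pharmacophore element C4: distance from averaged pharmacophore element to bound ligand; missing value means element absent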;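 for Ligand-pharmacophore element distance, pharmacophore element C5: distance from averaged pharmacophore element to bound ligand; missing value means element absent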
Parameters: van der Waals contact distance, MASP-2 HIS 483 atom CD2 / van der Waals contact distance, MASP-2 HIS 483 atom NE2 / van der Waals contact distance, SER 654 C to compound atom / van der Waals contact distance, SER 654 O to compound atom / van der Waals contact distance, TRP 655 C to compound atom / van der Waals contact distance, MASP-2 GLY 528 atom CA / van der Waals contact distance TRP 655 atom CZ3 / van der Waals contact distance TRP 655 atom N / van der Waals contact distance TRP 655 atom CE3 / van der Waals contact distance GLY 656 atom C / van der Waals contact distance GLY 656 atom CA / van der Waals contact distance GLY 656 atom O / van der Waals contact distance, MASP-2 TYR 607 atom CD1 / van der Waals contact distance, MASP-2 PRO 606 atom O / d(C3,CA1) / d(CA1,N1)2 / d(H4,O1) / d(H4,O2) / d(O1,O2) / d(CA1,O2) / d(CA6,O1) / d(CA6,O2) / d(CA1,C5) / d(O2,H3) / d(N2,C2) / d(CA5,N2) / d(N2,C4) / d(N2,C6) / d(N2,CA3) / d(N2,O3) / d(O4,H2): unit not given beside the values
Conditions: for H-bond distance to MASP-2 ASP 627 atom OD2: ASP 627 OD2; for H-bond distance to MASP-2 GLY 656 atom N: GLY 656 N; for H-bond distance to MASP-2 SER 654 atom O: SER 654 O; for H-bond distance to MASP-2 SER 657 atom O: SER 657 O; for van der Waals contact distance TRP 655 atom CE3: MASP-2 TRP 655 CE3, compound atom in line below; for Ligand-pharmacophore element distance, pharmacophore element C2 / Ligand-pharmacophore element distance, pharmacophore element C3 / Ligand-pharmacophore element distance, pharmacophore element C4 / Ligand-pharmacophore element distance, pharmacophore element C5 / Ligand-pharmacophore element distance, pharmacophore element C6 / Ligand-pharmacophore element distance, pharmacophore element C7 / Ligand-pharmacophore element distance, pharmacophore element CA1 / Ligand-pharmacophore element distance, pharmacophore element CA2 / Ligand-pharmacophore element distance, pharmacophore element CA3 / Ligand-pharmacophore element distance, pharmacophore element CA4 / Ligand-pharmacophore element distance, pharmacophore element CA5 / Ligand-pharmacophore element distance, pharmacophore element CA6: Table A4-1
In short: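 Inhibitor complexes were obtained by soaking crystals of E. coli-expressed human MASP-2 CCP2-SP constructs, then flash-cooling in liquid nitrogen. Structures solved by molecular replacement (1Q3X search model) from synchrotron diffraction; where several poses existed, only one was analyzed, and nonbonded contacts listed can include H-bonds.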

[1] = Table A5-1 pharmacophore: distance between elements, S2/S1 region
[2] = Table A5-2 pharmacophore distance, S3/S4 region
[3] = Table A7-1, between pharmacophore elements of the bound compound

Sequence of MASP-2 CCP2-SP (O00187 445-686): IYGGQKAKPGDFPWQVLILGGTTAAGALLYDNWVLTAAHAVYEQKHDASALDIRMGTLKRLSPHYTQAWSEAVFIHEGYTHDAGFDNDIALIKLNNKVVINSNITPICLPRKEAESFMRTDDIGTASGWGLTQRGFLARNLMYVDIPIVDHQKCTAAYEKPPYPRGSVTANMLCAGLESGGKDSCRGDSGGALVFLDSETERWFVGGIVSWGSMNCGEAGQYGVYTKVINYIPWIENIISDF
Sequence of MASP-2 CCP2-SP (O00187 364-432 partner): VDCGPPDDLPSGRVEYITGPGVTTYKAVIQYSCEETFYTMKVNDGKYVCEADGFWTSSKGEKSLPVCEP

Cc1nc(N)ccc1CNC(=O)[C@H](C)NC(=O)[C@H]1C[C@@H](c2ccccc2)CCN1C [compound 1441, (2R,4S)—N—((S)-1-(((6-Amino-2-methylpyridin-3-yl)methyl)amino)-1-oxopropan-2-yl)-1-methyl-4-phenylpiperidine-2-carboxamide]
H-bond distance to MASP-2 ASP 627 atom OD2 (Table A1 (H-Bonds)): 3.23
H-bond distance to MASP-2 GLY 656 atom N (Table A1 (H-Bonds)): 3.2
H-bond distance to MASP-2 SER 628 atom O (Table A1 (H-Bonds), SER 628 O): 3.06
H-bond distance to MASP-2 SER 654 atom O (Table A1 (H-Bonds)): 3.07
H-bond distance to MASP-2 SER 657 atom O (Table A1 (H-Bonds)): 2.91
van der Waals contact distance, MASP-2 amino acid atom to compound atom (Table A2): 3.8
van der Waals contact distance, MASP-2 HIS 483 atom CD2 (Table A2-1): 3.74
van der Waals contact distance, MASP-2 HIS 483 atom NE2 (Table A2-1): 3.61
van der Waals contact distance, MASP-2 GLY 528 atom CA (Table A2-2): 3.71
van der Waals contact distance, MASP-2 PHE 529 atom CE1 (Table A2-3): 3.85
van der Waals contact distance, MASP-2 amino acid atom to compound atom (Table A2-9, ARG 630, AA atoms CG, CZ): 3.87
van der Waals contact distance, VAL 653 CG1 to compound atom (Table A2-11): 3.38
van der Waals contact distance, SER 654 O to compound atom (Table A2-12): 3.85
van der Waals contact distance, TRP 655 CA to compound atom (Table A2-12): 3.34
van der Waals contact distance TRP 655 atom CE3 (Table A2-13): 3.65
van der Waals contact distance TRP 655 atom CZ3 (Table A2-13, MASP-2 TRP 655 CZ3): 3.75
Ligand-pharmacophore element distance, pharmacophore element C2: 0.54
Ligand-pharmacophore element distance, pharmacophore element C3: 0.17
Ligand-pharmacophore element distance, pharmacophore element C4: 0
Ligand-pharmacophore element distance, pharmacophore element C5: 0
Ligand-pharmacophore element distance, pharmacophore element C6: 0
Ligand-pharmacophore element distance, pharmacophore element C7: 0
Ligand-pharmacophore element distance, pharmacophore element CA1: 0.64
Ligand-pharmacophore element distance, pharmacophore element CA2: 0.64
Ligand-pharmacophore element distance, pharmacophore element CA3: 0
Ligand-pharmacophore element distance, pharmacophore element CA4: 0
Ligand-pharmacophore element distance, pharmacophore element CA5: 0
Ligand-pharmacophore element distance, pharmacophore element CA6: 0
d(C3,CA1) [1]: 2.85
d(CA1,N1)2 [1]: 1.37
d(CA1,O1) [1]: 4.27
d(CA1,O2) [1]: 3.96
d(H4,O1) [1]: 4.29
d(H4,O2) [1]: 3.79
d(O1,O2) [1]: 3.29
d(N2,C2) [2]: 1.45
d(N2,CA2) [2]: 5.75
d(O2,H3) [2]: 4.15
d(O2,N2) [2]: 2.72
a(C3, CA1, O1) (Table A6-1 pharmacophore angle): 148.89
a(CA1, O1, O2) (Table A6-1 pharmacophore angle): 108.56
a(O1, O2, H4) (Table A6-1 pharmacophore angle): 132.47
a(N1, CA1, O1) b) (Table A6-1 pharmacophore angle, Methyl-amino-pyridine compounds): 173.13
a(O1, O2, H3) (Table A6-2 pharmacophore angle): 145.43
a(O1, O2, N2) (Table A6-2 pharmacophore angle): 144.23
a(O2, N2, C2) (Table A6-2 pharmacophore angle): 131.10
a(O2, N2, CA2) (Table A6-2 pharmacophore angle): 156.32
Pharmacophore torsion angle a(C3, CA1, O1, H4) [3]: 21.88
Pharmacophore torsion angle a(H4, O1, O2, H3) [3]: 50.54
Pharmacophore torsion angle a(H4, O1, O2, N2) [3]: 141.99
Pharmacophore torsion angle a(N1, CA1, O1, H4) [3]: −6.82
Pharmacophore torsion angle a(O1, H4, O2, CA1) [3]: −80.01
Pharmacophore torsion angle a(O1, O2, N2, C2) [3]: 117.29
Pharmacophore torsion angle a(O1, O2, N2, CA2) (Table A7-2, between pharmacophore elements of the bound compound): 126.16

Cc1cnc(NCCc2ccccc2)c(=O)n1CC(=O)NCc1ccc2nc(N)[nH]c2c1 [compound 1492, N-((2-Amino-1H-benzo[d]imidazol-6-yl)methyl)-2-(6-methyl-2-oxo-3-(phenethylamino)pyrazin-1(2H)-yl)acetamide Trifluoroacetamide salt]
H-bond distance to MASP-2 ASP 627 atom OD2 (Table A1 (H-Bonds)): 3.32
H-bond distance to MASP-2 GLY 656 atom N (Table A1 (H-Bonds)): 3.06
H-bond distance to MASP-2 GLY 656 atom O (Table A1 (H-Bonds), GLY 656 O): 2.7
H-bond distance to MASP-2 SER 654 atom O (Table A1 (H-Bonds)): 2.78
H-bond distance to MASP-2 SER 657 atom O (Table A1 (H-Bonds)): 2.72
H-bond distance to MASP-2 SER 657 atom OG (Table A1 (H-Bonds), SER 657 OG): 2.62
van der Waals contact distance, MASP-2 HIS 483 atom CD2 (Table A2-1): 3.78
van der Waals contact distance, MASP-2 PRO 606 atom O (Table A2-4): 3.81
van der Waals contact distance, MASP-2 amino acid atom to compound atom (Table A2-9 second part, ARG 630, AA atoms N, NE, NH1): 3.71
van der Waals contact distance, SER 654 C to compound atom (Table A2-11): 3.88
van der Waals contact distance, VAL 653 CG1 to compound atom (Table A2-11): 3.61
van der Waals contact distance, TRP 655 C to compound atom (Table A2-12): 3.7
van der Waals contact distance TRP 655 atom CE3 (Table A2-13): 3.74
van der Waals contact distance, MASP-2 amino acid atom to compound atom (Table A2 section before Table A2-8): 3.86
Ligand-pharmacophore element distance, pharmacophore element C2: 2.91
Ligand-pharmacophore element distance, pharmacophore element C3: 0
Ligand-pharmacophore element distance, pharmacophore element C4: 0
Ligand-pharmacophore element distance, pharmacophore element C5: 0
Ligand-pharmacophore element distance, pharmacophore element C6: 0
Ligand-pharmacophore element distance, pharmacophore element C7: 0
Ligand-pharmacophore element distance, pharmacophore element CA1: 1.7
Ligand-pharmacophore element distance, pharmacophore element CA2: 0
Ligand-pharmacophore element distance, pharmacophore element CA3: 0
Ligand-pharmacophore element distance, pharmacophore element CA4: 0
Ligand-pharmacophore element distance, pharmacophore element CA5: 0.84
Ligand-pharmacophore element distance, pharmacophore element CA6: 0
d(CA1,N1) [1]: 1.85
d(CA1,O1) [1]: 4.66
d(CA1,O2) [1]: 6.47
d(CA6,O1) [1]: 3.43
d(CA6,O2) [1]: 1.13
d(H4,O1) [1]: 3.14
d(H4,O2) [1]: 5.11
d(O1,O2) [1]: 3.18
d(O2,H3) [2]: 7.20
a(CA1, O1, O2) (Table A6-1 pharmacophore angle): 137.45
a(O1, CA6, O2) (Table A6-1 pharmacophore angle): 87.17
a(O1, O2, H4) (Table A6-1 pharmacophore angle): 143.64
A(N1, CA1, O1) a) (Table A6-1 pharmacophore angle, all compounds with protonatable center N1 except Methyl-amino-pyridine): 173.84
a(O1, O2, H3) (Table A6-2 pharmacophore angle): 153.97
Pharmacophore torsion angle a(CA6, O1, H4, O2) [3]: −19.90
Pharmacophore torsion angle a(H4, O1, O2, H3) [3]: 94.72
Pharmacophore torsion angle a(N1, CA1, O2, H4) [3]: −132.36
Pharmacophore torsion angle a(O1, H4, O2, CA1) [3]: −60.21
